From patent US20080119412A1, “Polypeptides for Modulating Binding of Trp Channel Proteins and Trp- Associated Proteins” (NoNO Inc., priority 2003, published 2008)
Residues, ends and D or L forms follow the SMILES beside them. *: point of attachment. Biotin = O=C1N[C@H]2[C@H](CS[C@H]2CCCCC(=O)*)N1

Key:
Test in all cases: G3 assay titration, GST-PDZ fusion / biotinylated peptide
Format in all cases: binding
RIM2 d1 = biological target: T1, RIM2 d1 (Homo sapiens, UniProt Q9UQ26)
T1 construct: made in house; host or cells: E. coli (DH5alpha, BL21 or JM109)
T1 sequence (Q9UQ26 632-757): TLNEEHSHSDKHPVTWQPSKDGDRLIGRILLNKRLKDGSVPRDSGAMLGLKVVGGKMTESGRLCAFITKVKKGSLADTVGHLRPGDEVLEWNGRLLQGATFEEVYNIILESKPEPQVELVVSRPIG

PAR3 d3 = biological target: T2, PAR3 d3 (Homo sapiens, UniProt Q8TEW0, R682S)
T2 construct: made in house; host or cells: E. coli (DH5alpha, BL21 or JM109)

SITAC-18 d2 = biological target: T3, SITAC-18 d2 (Homo sapiens, UniProt Q9H190)
T3 construct: made in house; host or cells: E. coli (DH5alpha, BL21 or JM109)
T3 sequence (Q9H190 with tags, fused parts or gaps): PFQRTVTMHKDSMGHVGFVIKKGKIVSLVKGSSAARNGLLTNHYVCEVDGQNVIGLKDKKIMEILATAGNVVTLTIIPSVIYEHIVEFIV

INADL d3 = biological target: T4, INADL d3 (Homo sapiens, UniProt Q8NI35)
T4 construct: made in house; host or cells: E. coli (DH5alpha, BL21 or JM109)
T4 sequence (Q8NI35 with tags, fused parts or gaps): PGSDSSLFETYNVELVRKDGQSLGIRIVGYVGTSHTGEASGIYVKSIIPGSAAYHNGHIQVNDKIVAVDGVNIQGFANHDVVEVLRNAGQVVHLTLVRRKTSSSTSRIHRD
Method in brief: (§1)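 ELISA with anti-GST-captured GST-PDZ fusions (5 μg/ml), probed by biotinylated Tat-TRPM7 C-terminal peptide precomplexed 20 min with HRP-streptavidin. Binding ran 30 min at room temperature; TMB read at 450 nm. Peptide was titrated from 0.002 to 2 μM and data fitted to a binding equation.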

ZO-1 d2 = biological target: T5, ZO-1 d2 (Homo sapiens, UniProt Q07157, DEL264-264)
T5 construct: made in house; host or cells: E. coli (DH5alpha, BL21 or JM109)
T5 sequence (Q07157 with tags, fused parts or gaps DEL264-264): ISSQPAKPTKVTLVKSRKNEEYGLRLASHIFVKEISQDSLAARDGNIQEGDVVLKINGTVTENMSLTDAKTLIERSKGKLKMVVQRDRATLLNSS
Method in brief: as §1

PAR3L d3 = biological target: T6, PAR3L d3 (Homo sapiens, UniProt Q8TEW8)
T6 construct: made in house; host or cells: E. coli (DH5alpha, BL21 or JM109)

MAST2 d1 = biological target: T7, MAST2 d1 (Homo sapiens, UniProt Q6P0Q8)
T7 construct: made in house; host or cells: E. coli (DH5alpha, BL21 or JM109)
T7 sequence (Q6P0Q8 with tags, fused parts or gaps): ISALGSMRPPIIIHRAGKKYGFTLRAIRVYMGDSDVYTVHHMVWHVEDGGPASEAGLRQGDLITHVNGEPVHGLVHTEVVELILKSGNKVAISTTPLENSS

T2 sequence (Q8TEW0 with tags, fused parts or gaps R682S): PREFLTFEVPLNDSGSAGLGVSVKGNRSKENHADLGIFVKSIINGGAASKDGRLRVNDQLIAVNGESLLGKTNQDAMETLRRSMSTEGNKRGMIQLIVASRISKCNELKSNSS
T6 sequence (Q8TEW8 with tags, fused parts or gaps): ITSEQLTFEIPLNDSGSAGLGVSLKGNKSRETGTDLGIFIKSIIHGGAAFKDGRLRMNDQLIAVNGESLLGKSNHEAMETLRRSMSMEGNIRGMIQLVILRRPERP

CSCC[C@H](NC(=O)[C@H](CC(C)C)NC(=O)[C@H](CCCNC(=N)N)NC(=O)[C@@H](NC(=O)[C@H](CO)NC(=O)[C@H](CC(N)=O)NC(=O)[C@@H](NC(=O)[C@H](CO)NC(=O)[C@H](CCCNC(=N)N)NC(=O)[C@H](CCCNC(=N)N)NC(=O)[C@H](CCCNC(=N)N)NC(=O)[C@H](CCC(N)=O)NC(=O)[C@H](CCCNC(=N)N)NC(=O)[C@H](CCCNC(=N)N)NC(=O)[C@H](CCCCN)NC(=O)[C@H](CCCCN)NC(=O)[C@H](CCCNC(=N)N)NC(=O)CNC(=O)[C@H](Cc1ccc(O)cc1)NC(=O)CCCC[C@@H]1SC[C@@H]2NC(=O)N[C@@H]21)[C@@H](C)O)C(C)C)C(=O)N[C@@H](CC(C)C)C(=O)O [Tat-TRPM7 peptide] (Biotin-YGRKKRRQRRRSTNSVRLML-OH)
EC50 (RIM2 d1): 0.047 µM | EC50 (PAR3 d3): 0.018 µM | EC50 (SITAC-18 d2): 0.09 µM | EC50 (INADL d3): 0.12 µM | EC50 (ZO-1 d2): 0.033 µM | EC50 (PAR3L d3): 0.1 µM | EC50 (MAST2 d1): 0.11 µM
